Molecules are shown by their SMILES.

The values that follow come from patent publication US11684639B2, “Pharmaceutical composition for preventing and treating cell proliferative disease comprising mixture of feather of birds and scale of fish as an active ingredient” (priority 2007, dated 2023).

The subject of this test is human colon cancer cells (HCT-15). As to the kind of experiment: Anticancer effect in nude mice transplanted with human colon cancer cells (tumor volume). The note with it: G2, 2 mg/kg abdominal, once in 2 days. In kind it is in vivo, BALB/C nude mice. On the procedure:
The anticancer effect of the inventive composition was tested at the Chemon Preclinical Research Center (approved by the KGLP) using a nude mouse transplanted with human colon cancer cells.
7-weeks-old specific pathogen free (SPF) athymic BALB/C nude mice (SLC Japan, Japan) were weighed and grouped to 6 groups, 10 per each group, as follows: negative control group (1), positive control group (1) and test groups (4). The mice were identified by the identification label of the cage and using ear punching.
The test groups were designed as in Table 1.
Colon cancer cells (HCT15) were thawed in a constant-temperature water bath of […] as soon as possible. After mixing well with 10 mL of RPMI1640 culture medium (Sigma Aldrich, USA), centrifuge was performed at 1000 rpm for 10 minutes. The resulting cell pellet was mixed well with 5 mL of RPMI1640 culture medium containing 10% fetal bovine serum (FBS), and the cells were cultured in a cell culture flask under the condition of 37° C. and 5% CO2. The cultured cancer cells were suspended in physiological saline to a concentration of 1×10^7 cells/mL and transplanted subcutaneously to the mice, 0.3 mL (3×10^6 cells) each.
The composition prepared in Example 1 was suspended at various concentrations in sterilized, distilled water for injection (Choongwae Pharma Corporation, Korea) as excipient, ground using a grinding machine (homogenizer), and orally administered to the mice at a dose of 75 mg/kg body weight (G3), 150 mg/kg body weight (G4) or 300 mg/kg body weight (G5), respectively, for 3 weeks, twice a day. Of the test groups, the pre-administration group (G6) had been orally administered with the composition at a dose of 300 mg/kg body weight for 3 weeks, twice a day, before the transplantation of the cancer cells. Following the transplantation of the cancer cells, they were administered in the same way for 3 weeks.
In the negative control group (G1), the excipient was orally administered for 3 weeks, twice a day, instead of the inventive anticancer composition. […] The doxorubicin solution was prepared by dissolving in the excipient by a method known in the art.
During the test, the mice were kept under the condition of 23±3° C. and relative humidity of 55±15%, and access to water and feed was allowed freely.
Tumor volume was measured on days 12, 15, 19 and 22 after the inoculation of the cancer cells. Length, width and height of the tumor were measured using a vernier caliper, and the tumor volume was calculated by the following equation: Tumor volume=(Length×Width×Height)÷2 The tumor volume measurement result is given in Table 2 (unit: mm^3).

For `COc1cccc2c1C(=O)c1c(O)c3c(c(O)c1C2=O)C[C@@](O)(C(=O)CO)C[C@@H]3O[C@H]1C[C@H](N)[C@H](O)[C@H](C)O1` [doxorubicin], the Tumor volume (Day 12) is 29.3 ± 16.0 mm^3, the Tumor volume (Day 15) came out at 93.7 ± 65.9 mm^3, the Tumor volume (Day 19) is recorded as 149.0 ± 77.6 mm^3 and the Tumor volume (Day 22) was found to be 258.6 ± 160.1 mm^3. Also, the “tumor inhibition effect ([1-(tumor volume of administered group/tumor volume of negative control group)]x100)” value (day 22) was 59.5%.
